Some results are limits rather than exact numbers.

As a reminder, the CC50 is the concentration giving 50% cytotoxicity. As usually defined, the EC50 is the midpoint of the concentration-response curve. In general, Ki refers to a measure of affinity in units of concentration, obtained from inhibition or displacement.

Series [1] deals with Human immunodeficiency virus 1. Put plainly: Reactivation of HIV-1 latency in human U1 cells assessed as fold increase in HIV transcription by measuring GFP expression at 2 uM incubated for 24 hrs in presence of PEP005 by flow cytometry. It is filed as functional. For orientation: Flow cytometry measures light scatter and fluorescence of single cells or particles in a stream.

The test system of series [2] is Human immunodeficiency virus 1. The series is described as follows: Reactivation of HIV-1 latency infected in GFP-fused human J-Lat 9.2 cells assessed as increase in GFP expression at 1 uM incubated for 24 hrs by flow cytometry. It is filed as functional.
Series [3] in a line: Cytotoxicity against human U1 cells assessed as reduction in cell viability incubated for 48 hrs by WST-8 assay. It is filed as toxicity, cell-based. In general terms: Formazan colour is commonly taken as a measure of viable cells.
For series [4], the system named is Human immunodeficiency virus 1. The series is described as follows: Reversal of HIV-1 latency in human ACH-2 cells assessed as increase in GFP positive cells incubated for 24 hrs by flow cytometry. The conditions noted are these: Human immunodeficiency virus 1, ACH-2, 24 h. It is filed as functional, organism-based, ACH-2 cell line.
A short description of series [5]: Cytotoxicity against human PBMC cells assessed as reduction in cell viability incubated for 48 hrs by WST-8 assay. It is filed as toxicity, cell-based.
A short description of series [6]: Cytotoxicity against human ACH-2 cells assessed as reduction in cell viability incubated for 48 hrs by WST-8 assay. It is filed as toxicity, cell-based.
The target of series [7] is Protein kinase C gamma type (Homo sapiens, UniProt P05129). Put plainly: Displacement of 3H-PDBu from recombinant human PKCgamma incubated for 25 mins by scintillation counter analysis. In general terms: In a radioligand displacement assay an active substance lowers the binding of a labelled ligand.
Series [8] is described as follows: Inhibition of HIV-1 latency infected in human U1 cells assessed as increase in p24 expression level incubated for 48 hrs by ELISA. It counts as functional, cell-based. The conditions noted are these: Human immunodeficiency virus 1, U1, 48 h.
Series [9] in a line: Cytotoxicity against human J-Lat C11 cells assessed as reduction in cell viability incubated for 72 hrs by CCK-8 assay. It counts as toxicity, cell-based.
Series [10] deals with Human immunodeficiency virus 1. Put plainly: Reactivation of HIV-1 latency infected in GFP-fused human J-Lat 10.6 cells assessed as increase in GFP expression at 1 to 100000 nM incubated for 48 hrs by flow cytometry. It counts as functional. The conditions noted are these: dose 1-100000 nM.
The test system of series [11] is Human immunodeficiency virus 1. The series is described as follows: Reactivation of HIV-1 latency infected in GFP-fused human J-Lat C11 cells assessed as increase in GFP expression incubated for 48 hrs by flow cytometry. The conditions noted are these: Human immunodeficiency virus 1, J-Lat C11, 48 h. It is filed as functional, organism-based.
Series [12] can be described thus: Cytotoxicity against human J-Lat 10.6 cells assessed as reduction in cell viability incubated for 72 hrs by CCK-8 assay. It is filed as toxicity, cell-based.
Series [13] has as its system Human immunodeficiency virus 1. Put plainly: Reactivation of HIV-1 latency infected in GFP-fused human J-Lat 10.6 cells assessed as increase in GFP expression incubated for 48 hrs by flow cytometry. It counts as functional, organism-based. The conditions noted are these: Human immunodeficiency virus 1, J-Lat 10.6, 48 h.
The test system of series [14] is Human immunodeficiency virus 1. The series is described as follows: Reactivation of HIV-1 latency infected in GFP-fused human J-Lat C11 cells assessed as increase in GFP expression at 1 to 100000 nM incubated for 48 hrs by flow cytometry. It counts as functional. The conditions noted are these: dose 1-100000 nM.
The subject of series [15] is Human immunodeficiency virus 1. The series is described as follows: Reactivation of HIV-1 latency in human J-Lat Tat-GFP Clone A1 cells assessed as increase in GFP expression at 375 pM incubated for 24 hrs by flow cytometry. It counts as functional.
The test system of series [16] is Human immunodeficiency virus 1. Put plainly: Reactivation of HIV-1 latency in human CD4+ve Th cells assessed as increase in GFP expression at 3 nM incubated for 24 hrs by flow cytometry. It counts as functional.
Series [17] has as its system Human immunodeficiency virus 1. The series is described as follows: Reactivation of HIV-1 latency in human J-Lat Tat-GFP Clone A1 cells assessed as increase in GFP expression at 23 pM incubated for 24 hrs by flow cytometry. It is filed as functional.
Series [18] has as its system Human immunodeficiency virus 1. The series is described as follows: Reactivation of HIV-1 latency in human U1 cells assessed as fold increase in HIV transcription by measuring GFP expression at 6 nM incubated for 24 hrs by flow cytometry. It is filed as functional.
The subject of series [19] is Human immunodeficiency virus 1. Put plainly: Reactivation of HIV-1 latency in human U1 cells assessed as fold increase in HIV transcription by measuring GFP expression at 6 nM incubated for 24 hrs in presence of JQ1 by flow cytometry. It counts as functional.
Series [20] relates to Human immunodeficiency virus 1. Put plainly: Reversal of HIV-1 latency in human PBMC from HIV infected donors assessed as increase in p24Gag viral protein level incubated for 24 hrs by ELISA. It counts as functional.
For series [21], the system named is Human immunodeficiency virus 1. The series is described as follows: Reversal of HIV-1 latency in human J-Lat 9.2 cells assessed as increase in GFP expression incubated for 24 hrs by flow cytometry. The conditions noted are these: Human immunodeficiency virus 1, J-Lat 9.2, 24 h. It is filed as functional, organism-based.
Series [22] has as its system Human immunodeficiency virus 1. The series is described as follows: Reversal of HIV-1 latency in human J-Lat 10.6 cells assessed as increase in GFP expression incubated for 24 hrs by flow cytometry. It is filed as functional, organism-based. The conditions noted are these: Human immunodeficiency virus 1, J-Lat 10.6, 24 h.
Series [23] relates to Human immunodeficiency virus 1. Put plainly: Reversal of HIV-1 latency in human J-Lat 8.4 cells assessed as increase in GFP expression incubated for 24 hrs by flow cytometry. It counts as functional, organism-based. The conditions noted are these: Human immunodeficiency virus 1, J-Lat 8.4, 24 h.

Take `Cc1sc2c(c1C)C(c1ccc(Cl)cc1)=N[C@@H](CC(=O)OC(C)(C)C)c1nnc(C)n1-2`: the “fold change (FC)” value in series [1] stood at 250.

For the molecule `CCCc1nc2c(N)nc3ccccc3c2s1`, the Activity in series [2] is reported as 18%.

As to `CCCCCCCCCCc1ccc2c(c1)N(C)[C@@H](C(C)C)C(=O)NC(CO)C2` (stereo partly specified), the half-maximal cytotoxic concentration (CC50) at 48 h in series [3] is 61200 nM; in series [5], 39900 nM; in series [6], 21100 nM. In addition, the EC50 in series [4] was found to be 25 nM.

For `CC1=C[C@H]2[C@@]3(O)[C@H](C)C[C@]4(OC(=O)Cc5cccc6ccccc56)[C@H]([C@@H]3C=C(CO)C[C@]2(O)C1=O)C4(C)C`, the Ki in [7] came out at 0.65 nM. The EC50 in series [8] is 10.2 nM.

Take `CCCCCCCCCCCC(=O)OCC1=C[C@H]2C(=O)[C@]3(C=C(C)[C@H](OC(=O)CC(C)C(C)C)[C@@]3(O)[C@@H]1O)[C@H](C)CC1C2C1(C)C` (stereo partly specified): the cytotoxic concentration (CC50) at 72 h in [9] was 68.5 nM; in series [12] it was 94.2 nM. The Activity was 90% in series [10] and 80% in series [14]. For the same molecule, the EC50 in [11] worked out at 3.53 nM; in series [13], 4.06 nM.

With `CCCCCC(=O)O[C@H]1C(C)=C[C@]23C(=O)[C@H](C=C(CO)[C@@H](O)[C@]12O)C1C(C[C@H]3C)C1(C)C` (stereo partly specified), the results for the Activity in series [15], in series [16] and in series [17] were 50%, 100% and 20%, respectively.

As to `C/C=C(\C)C(=O)O[C@H]1C(C)=C[C@]23C(=O)[C@H](C=C(CO)[C@@H](O)[C@]12O)C1C(C[C@H]3C)C1(C)C` (stereo partly specified), the results for the “fold change (FC)” value in series [18] and in series [19] were 25 and 250, respectively.

Turning to `CO[C@@H](CC[C@H](C)[C@H]1O[C@@]23C[C@H](OC(=O)C[C@H]([C@@H](C)O)OC(=O)C[C@](O)(O2)[C@H](C)CC3(C)C)[C@@H]1C)c1cc(O)ccc1Br` [APLYSIATOXIN], in series [20], the Activity was found to be 56%.

For the molecule `CC(=O)O[C@@]12C[C@@H](C)[C@@]3(O)[C@@H](C=C(CO)C[C@]4(O)C(=O)C(C)=C[C@@H]34)[C@@H]1C2(C)C` [PROSTRATIN], the EC50 in series [21] was 45 nM; in series [11], 768 nM; in series [13], 865 nM; in series [22] it was 3.3 nM; in series [23] it was 11 nM; in [8], over 1000 nM.

Values taken from ChEMBL document CHEMBL5096158, “HIV latency reversal agents: A potential path for functional cure?” (Eur J Med Chem, 2021).
